Reference: publication PMC4618646 (Pharmacology Research & Perspectives, 2015)
Values after ≈ are worked out from the molar mass of the structure shown. Read-outs that look alike come from different tables or passages of the source.

What was measured:
[1] = phase II clinical trials for RA; ref Silverman et al. [2008]; cited from earlier work
[2] = molecular target: T1, Adenosine A3 receptor (Homo sapiens, UniProt P0DMS8); format: biochemical
T1 sequence (P0DMS8 1-318): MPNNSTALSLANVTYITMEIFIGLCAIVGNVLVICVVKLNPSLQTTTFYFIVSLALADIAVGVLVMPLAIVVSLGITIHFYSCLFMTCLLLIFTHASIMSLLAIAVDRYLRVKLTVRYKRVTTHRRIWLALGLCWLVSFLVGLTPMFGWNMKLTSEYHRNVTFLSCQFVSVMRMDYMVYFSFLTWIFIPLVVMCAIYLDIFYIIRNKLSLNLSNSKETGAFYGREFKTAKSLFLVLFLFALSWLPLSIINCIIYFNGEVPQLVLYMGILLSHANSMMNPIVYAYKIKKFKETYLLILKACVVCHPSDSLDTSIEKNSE

[3] = molecular target: T1, Adenosine A3 receptor; test: Adenosine A3 receptor; settings: Radioligand binding Ki
[4] = system: 314 diverse molecular targets; test: Eurofins Panlabs broad in vitro panel, 10 μmol/L single concentration screen; settings: at nine of 314 targets
[5] = molecular target: T2, Fatty acid amide hydrolase (FAAH) (Rattus norvegicus, UniProt P97612); test: Fatty acid amide hydrolase; format: biochemical
T2 sequence (P97612 1-579): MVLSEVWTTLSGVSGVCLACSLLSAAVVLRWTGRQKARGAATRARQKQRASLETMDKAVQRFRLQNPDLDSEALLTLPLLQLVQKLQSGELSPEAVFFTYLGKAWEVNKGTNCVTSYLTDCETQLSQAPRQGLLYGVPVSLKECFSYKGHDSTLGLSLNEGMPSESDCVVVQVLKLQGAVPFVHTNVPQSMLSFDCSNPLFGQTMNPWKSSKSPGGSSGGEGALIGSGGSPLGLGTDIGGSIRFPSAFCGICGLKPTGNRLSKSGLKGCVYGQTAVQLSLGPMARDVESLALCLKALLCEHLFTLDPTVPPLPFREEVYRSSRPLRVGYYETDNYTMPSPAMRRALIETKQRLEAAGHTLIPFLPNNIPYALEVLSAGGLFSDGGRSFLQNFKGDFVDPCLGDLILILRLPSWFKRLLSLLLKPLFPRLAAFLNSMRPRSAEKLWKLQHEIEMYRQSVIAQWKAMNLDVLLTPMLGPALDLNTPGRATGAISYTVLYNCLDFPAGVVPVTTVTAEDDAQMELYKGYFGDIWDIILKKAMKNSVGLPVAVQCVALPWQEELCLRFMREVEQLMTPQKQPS

[6] = molecular target: Transporter, monoamine; test: Transporter, monoamine; format: binding; settings: Vesicular monoamine transporter (rabbit)
[7] = format: physicochemical
[8] = system: Purified human recombinant kinases; format: biochemical; settings: median estimate of curve top showing <50% inhibition
[9] = molecular target: Cathepsin S (Homo sapiens, UniProt P25774); test: Cathepsin S; format: biochemical
[10] = system: adenosine transporter; format: cell-based, human
[11] = molecular target: T3, Lipoxygenase 5-LO (Homo sapiens, UniProt P09917); test: Lipoxygenase 5-LO; format: biochemical
T3 sequence (P09917 1-674): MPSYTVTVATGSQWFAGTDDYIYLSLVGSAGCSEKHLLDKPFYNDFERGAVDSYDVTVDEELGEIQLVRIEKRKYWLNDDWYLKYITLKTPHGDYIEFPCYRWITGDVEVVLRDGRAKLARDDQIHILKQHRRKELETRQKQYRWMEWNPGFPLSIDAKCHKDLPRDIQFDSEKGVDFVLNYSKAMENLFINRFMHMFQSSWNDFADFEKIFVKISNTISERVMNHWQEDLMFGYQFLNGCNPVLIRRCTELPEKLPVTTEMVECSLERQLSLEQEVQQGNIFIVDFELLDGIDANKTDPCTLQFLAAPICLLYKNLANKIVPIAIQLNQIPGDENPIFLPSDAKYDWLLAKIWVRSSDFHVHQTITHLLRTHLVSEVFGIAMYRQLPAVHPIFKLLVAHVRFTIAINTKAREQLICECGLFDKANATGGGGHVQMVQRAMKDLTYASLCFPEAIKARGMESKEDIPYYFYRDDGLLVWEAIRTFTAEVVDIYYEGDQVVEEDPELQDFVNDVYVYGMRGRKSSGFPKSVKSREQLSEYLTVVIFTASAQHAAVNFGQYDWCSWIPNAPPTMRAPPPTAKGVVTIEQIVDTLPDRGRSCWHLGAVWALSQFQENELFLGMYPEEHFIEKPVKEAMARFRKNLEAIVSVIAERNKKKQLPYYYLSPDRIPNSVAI

[12] = molecular target: Cathepsin L (Homo sapiens, UniProt P07711); test: Cathepsin L; format: biochemical
[13] = molecular target: T4, UDP glucuronosyltransferase, UGT1A1 (Homo sapiens, UniProt P22309); test: UDP glucuronosyltransferase, UGT1A1; format: biochemical
T4 sequence (P22309 26-533): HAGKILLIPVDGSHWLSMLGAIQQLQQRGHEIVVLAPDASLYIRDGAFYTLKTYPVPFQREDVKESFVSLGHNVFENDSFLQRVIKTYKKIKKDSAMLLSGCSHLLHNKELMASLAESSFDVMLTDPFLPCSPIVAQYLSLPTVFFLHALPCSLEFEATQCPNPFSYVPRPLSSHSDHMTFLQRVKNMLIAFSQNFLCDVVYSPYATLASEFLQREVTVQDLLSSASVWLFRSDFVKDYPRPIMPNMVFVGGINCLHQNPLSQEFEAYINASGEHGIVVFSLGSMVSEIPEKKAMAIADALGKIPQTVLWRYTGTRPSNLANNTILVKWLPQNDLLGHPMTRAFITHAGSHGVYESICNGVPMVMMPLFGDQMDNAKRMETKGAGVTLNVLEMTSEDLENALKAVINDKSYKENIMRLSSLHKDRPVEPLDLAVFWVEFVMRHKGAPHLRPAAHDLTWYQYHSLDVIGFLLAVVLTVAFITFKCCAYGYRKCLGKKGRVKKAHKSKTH

[14] = molecular target: Phosphodiesterase PDE5 (Homo sapiens, UniProt O76074); test: Phosphodiesterase PDE5; format: biochemical
[15] = system: human kinases; format: binding; settings: 10 μmol/L single concentration screen; for 197 of 387 kinases
[16] = ref Mikus et al. [2013]; cited from earlier work
[17] = system: KDR (VEGFR2); test: KDR inhibition measured in HUVEC cells; format: cell-based, human; settings: from KDR IC50 data of ref McTigue et al. [2012]

Chain of Cathepsin L (P07711 114-333): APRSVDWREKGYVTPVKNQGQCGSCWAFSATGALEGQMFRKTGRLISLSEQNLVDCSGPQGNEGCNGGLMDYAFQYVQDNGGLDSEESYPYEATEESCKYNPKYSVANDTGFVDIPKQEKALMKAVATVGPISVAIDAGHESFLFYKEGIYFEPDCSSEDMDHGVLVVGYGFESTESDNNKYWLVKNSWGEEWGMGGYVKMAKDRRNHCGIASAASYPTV
Chain of Cathepsin S (P25774 115-331): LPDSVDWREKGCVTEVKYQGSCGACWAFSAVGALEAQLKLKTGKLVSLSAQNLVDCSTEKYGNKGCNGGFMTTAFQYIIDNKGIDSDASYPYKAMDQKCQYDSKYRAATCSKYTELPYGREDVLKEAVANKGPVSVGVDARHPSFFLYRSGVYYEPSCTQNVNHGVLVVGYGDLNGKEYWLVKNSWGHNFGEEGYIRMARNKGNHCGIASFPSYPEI

Compound: CNC(=O)[C@H]1O[C@@H](n2cnc3c(NCc4cccc(I)c4)ncnc32)[C@H](O)[C@@H]1O [CF101]
- adverse effects on blood pressure [1]: no adverse effects on blood pressure

Compound: COc1cc(Nc2ncc(F)c(Nc3ccc4c(n3)NC(=O)C(C)(C)O4)n2)cc(OC)c1OC [R406]
- Mode of action ([2]; Adenosine A3 receptor (human)): Antagonist
- effect of R406 on its own on GTPγS binding ([2]; concentrations up to 10 μmol/L, absence of agonist): no effect
- Ki [3]: 17 nM
- inhibition [4]: > 50%
- Mode of action ([5]; Fatty acid amide hydrolase (rat)): Inhibitor
- IC50 ([5]; Radioligand binding or enzyme activity IC50, Fatty acid amide hydrolase (rat)): 1510 nM
- Ki ([6]; read-out: Radioligand binding Ki): 1630 nM
- IC50 ([6]; read-out: Radioligand binding or enzyme activity IC50): 1960 nM
- solubility ([7]; solubility in DMSO, 100% DMSO): ~140 mM (≈ 65.9 mg/mL)
- solubility ([7]; solubility in phosphate-buffered saline, physiological pH): 0.0002 mM (≈ 9.41e-05 mg/mL)
- activity in the remaining 19 of 139 kinase activity assays [8]: inactive
- Mode of action ([9]; Cathepsin S (human)): Inhibitor
- IC50 ([9]; Radioligand binding or enzyme activity IC50, Cathepsin S (human)): 11900 nM
- Mode of action ([10]; Adenosine transporter (human)): Inhibitor
- IC50 ([10]; read-out: IC50, inhibition of adenosine uptake, U937 cells, [^3H]adenosine): 100 nM
- Mode of action ([11]; 5-Lipoxygenase (human)): Inhibitor
- IC50 ([11]; Radioligand binding or enzyme activity IC50, 5-Lipoxygenase (human)): 5500 nM
- Mode of action ([12]; Cathepsin L (human)): Inhibitor
- IC50 ([12]; Radioligand binding or enzyme activity IC50, Cathepsin L (human)): 5930 nM
- IC50 ([13]; Radioligand binding or enzyme activity IC50, UDP glucuronosyltransferase UGT1A1 (human)): 143 nM
- Mode of action ([13]; UDP glucuronosyltransferase UGT1A1 (human)): Inhibitor
- Mode of action ([14]; Phosphodiesterase PDE5 (human)): Inhibitor
- IC50 ([14]; Radioligand binding or enzyme activity IC50, Phosphodiesterase PDE5 (human)): 308 nM
- inhibition of the qPCR signal [15]: ≥ 80%

Compound: COc1ccc(C(=O)Nc2nc3ccccc3c(NCc3ccccc3)c2C#N)cc1 [SSR161421]
- effects in animal models of asthma [16]: beneficial effects

Compound: COc1cc2c(Oc3ccc4[nH]c(C)cc4c3F)ncnc2cc1OCCCN1CCCC1 [cediranib]
- fold more potent at KDR than sunitinib [17]: ~31 fold
